# Target: Tumor necrosis factor (Homo sapiens, UniProt P01375)
# Assay: Inhibition of human TNF-alpha secretion stimulated by LPS
# Chain of Tumor necrosis factor (P01375 whole entry): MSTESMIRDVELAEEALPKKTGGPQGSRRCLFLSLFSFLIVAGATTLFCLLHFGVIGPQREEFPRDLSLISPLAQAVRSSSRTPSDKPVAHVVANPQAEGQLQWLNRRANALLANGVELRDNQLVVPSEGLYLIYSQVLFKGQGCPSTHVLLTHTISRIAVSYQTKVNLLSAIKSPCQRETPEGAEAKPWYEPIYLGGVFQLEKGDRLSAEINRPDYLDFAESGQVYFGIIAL
structure (smiles),measurement,value
Cc1ccc(Cl)cc1Nc1cc(Cl)c2nonc2c1[N+](=O)[O-],EC50,0.3 µM
